Test results as given in EP4603105A1, “PHARMACEUTICAL COMPOSITION CONTAINING CYCLIC COMPOUND HAVING SELECTIVE KRAS INHIBITORY EFFECT AGAINST HRAS AND NRAS” (CHUGAI SEIYAKU KABUSHIKI KAISHA, priority 2022, dated 2024).
*1 amine or outer side, *2 acyl side, *3 side chain or, on linkers, in order; H or OH if unused. Where a SMILES comes first, the peptide text is derived from it. Bridges are numbered along the chain shown (N, C = ends). [ ]: non-standard residue; d: D form. The star is where a group is joined. hPhe(3,5-F2-4-CF3) = N[C@@H](CCc1cc(F)c(C(F)(F)F)c(F)c1)C(=O)O; hPhe(3-Cl-4-CF3) = N[C@@H](CCc1ccc(C(F)(F)F)c(Cl)c1)C(=O)O; X39 = O=C([C@H](Cc1ccc(C(F)(F)F)cc1)N(CC1CCC1)[*:1])[*:2]; NPrPhe(4-CF3) = CCCN[C@@H](Cc1ccc(C(F)(F)F)cc1)C(=O)O; NMeAbu(4,4,4-F3) = CN[C@@H](CC(F)(F)F)C(=O)O; NMeGly(cPent) = CN[C@H](C(=O)O)C1CCCC1; Pro(4,4-Me2) = CC1(C)CN[C@H](C(=O)O)C1; Hyp = O=C(O)[C@@H]1C[C@@H](O)CN1; NMeD = CN[C@@H](CC(=O)O)C(=O)O; NMeL = CN[C@@H](CC(C)C)C(=O)O; Morpholide = C1CN(*)CCO1; NMeA = CN[C@@H](C)C(=O)O; Ac5c = NC1(C(=O)O)CCCC1; Aze = O=C(O)[C@@H]1CCN1; Ac4c = NC1(C(=O)O)CCC1; Sar = CNCC(=O)O

How the values were obtained:
[1] = molecular target: GDP-bound NRAS wild-type protein (Homo sapiens, UniProt P01111); test: Binding to NRAS by surface plasmon resonance (SPR), KD and KD ratio to KRAS
Method in brief: (§1)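 SPR, 30°C: Avi-biotin RAS·GDP captured via Biotin CAPture (~100–300 RU); running buffer HBS pH 7.4, 1 mM DTT, 10 mM MgCl2, 0.01% Tween 20, 10 µM GDP, 4% DMSO. Single-cycle kinetics, 100 µL/min, 75 s injections; 1:1 model → KD.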

[2] = tested on: human lung cancer strain NCI-H441; type: cell-based
Method in brief: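 Proliferation was scored by […] measured after the reagent was added to cultures kept at 37°C in 5% carbon dioxide.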

HRAS wild-type protein = HRAS wild-type protein (Homo sapiens, UniProt P01112); test: Binding to HRAS by surface plasmon resonance (SPR), KD and KD ratio to KRAS
Method in brief: as §1

[3] = ratio of the KD value with respect to GDP-bound NRAS wild-type protein to the KD value with respect to KRAS
[4] = ratio of the KD value with respect to HRAS wild-type protein to the KD value with respect to KRAS
[5] = ratio of KD for GDP-bound NRAS wild-type protein to KD for KRAS
[6] = ratio of KD for HRAS wild-type protein to KD for KRAS
[7] = ratio of KD value for GDP-bound NRAS wild-type protein to KD value for KRAS (SPR)
[8] = ratio of KD value for HRAS wild-type protein to KD value for KRAS (SPR)

GDP-bound NRAS wild-type protein, sequence (P01111 whole entry): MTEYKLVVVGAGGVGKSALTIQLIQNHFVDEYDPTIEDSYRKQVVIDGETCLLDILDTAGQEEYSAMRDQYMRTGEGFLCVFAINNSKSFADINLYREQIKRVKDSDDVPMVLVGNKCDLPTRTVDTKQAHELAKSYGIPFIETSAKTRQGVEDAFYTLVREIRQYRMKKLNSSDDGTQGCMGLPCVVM
HRAS wild-type protein, sequence (P01112 whole entry): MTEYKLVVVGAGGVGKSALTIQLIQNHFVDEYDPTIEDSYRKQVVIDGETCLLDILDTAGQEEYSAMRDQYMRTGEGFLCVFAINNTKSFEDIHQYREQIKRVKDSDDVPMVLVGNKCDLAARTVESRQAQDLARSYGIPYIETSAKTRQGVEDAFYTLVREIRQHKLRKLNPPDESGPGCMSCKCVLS

| SMILES | NRAS /KRAS [1, 3] | IC50 [2] | HRAS /KRAS (HRAS wild-type protein; [4]) | NRAS /KRAS [1, 5] | HRAS /KRAS (HRAS wild-type protein; [6]) | NRAS /KRAS [1, 7] | HRAS /KRAS (HRAS wild-type protein; [8]) |
| --- | --- | --- | --- | --- | --- | --- | --- |
| CCCN1C(=O)CN(C)C(=O)CNC(=O)[C@H]([C@@H](C)CC)NC(=O)[C@H](CC(C)C)N(C)C(=O)C[C@@H](C(=O)N2CCOCC2)N(C)C(=O)[C@H](C2CCCC2)N(C)C(=O)C2(CCC2)NC(=O)[C@@H]2C[C@@H](OCC)CN2C(=O)[C@H](CCc2ccc(C(F)(F)F)c(Cl)c2)NC(=O)CN(C)C(=O)[C@@H]1Cc1ccc(C(F)(F)F)cc1 [PP0397] ([NMeL]IG[Sar][NPrPhe(4-CF3)][Sar][hPhe(3-Cl-4-CF3)][Hyp](Et)[Ac4c][NMeGly(cPent)][NMeD]-Morpholide; lactam N-11) | C (A compound having a KD ratio of 0.1 or more and less than 3 is denoted as C) | 0.7 nM | C (A compound having a KD ratio of 0.1 or more and less than 3 is denoted as C) | – | – | – | – |
| CCO[C@@H]1C[C@H]2C(=O)NC3(CC(C)(C)C3)C(=O)N(C)[C@@H](C3CCCC3)C(=O)N(C)[C@H](C(=O)N(C)C)CC(=O)N(C)[C@@H](CC(C)C)C(=O)N[C@@H]([C@@H](C)CC)C(=O)N(C)CC(=O)N(C)[C@H]3C/C=C\CCN(C3=O)[C@@H](Cc3ccc(C(C)C)cc3)C(=O)N(C)CC(=O)N[C@@H](CCc3ccc(C(F)(F)F)c(OC)c3)C(=O)N2C1 [PP2692] | – | 7.7 nM | – | A (a compound having 10 or more and less than 20 is denoted as A) | A (a compound having 10 or more and less than 20 is denoted as A) | – | – |
| CCC[C@H]1C(=O)N[C@@H]([C@@H](C)CC)C(=O)N(C)CC(=O)N(C)[C@H]2C/C=C\CCN(C2=O)[C@@H](Cc2ccc(C(F)(F)F)cc2)C(=O)N(C)CC(=O)N[C@@H](CCc2cc(F)c(C(F)(F)F)c(F)c2)C(=O)N2C[C@H](OCC)C[C@H]2C(=O)NC2(CCC2)C(=O)N(C)[C@@H](C2CCCC2)C(=O)N(C)[C@H](C(=O)N(C)C)CC(=O)N1C [PP1110] | – | 11.2 nM | – | A (a compound having 10 or more and less than 20 is denoted as A) | B (a compound having 3 or more and less than 10 is denoted as B) | – | – |
| CCCN1C(=O)CN(C)C(=O)CN(C)C(=O)[C@H]([C@@H](C)CC)NC(=O)[C@H](CC(C)C)N(C)C(=O)C[C@@H](C(=O)N(C)C)N(C)C(=O)[C@H](CC(F)(F)F)N(C)C(=O)C2(CCCC2)NC(=O)[C@@H]2CCCN2C(=O)[C@H](CCc2cc(F)c(C(F)(F)F)c(F)c2)NC(=O)CN(C)C(=O)[C@@H]1Cc1ccc(C(F)(F)F)cc1 [PP0746] ([NMeL]I[Sar][Sar][NPrPhe(4-CF3)][Sar][hPhe(3,5-F2-4-CF3)]P[Ac5c][NMeAbu(4,4,4-F3)][NMeD]-NMe2; lactam N-11) | B (a compound having 3 or more and less than 10 is denoted as B) | 35.4 nM | C (A compound having a KD ratio of 0.1 or more and less than 3 is denoted as C) | – | – | – | – |
| CCO[C@@H]1C[C@H]2C(=O)NC3(CCCC3)C(=O)N(C)[C@@H](C3CCCC3)C(=O)N(C)[C@H](C(=O)N(C)CC)CC(=O)N(C)[C@@H](CC(C)C)C(=O)N[C@@H]([C@@H](C)CC)C(=O)N(C)CC(=O)N(C)[C@H]3C/C=C\CCN(C3=O)[C@@H](Cc3ccc(C(F)(F)F)cc3)C(=O)N(C)CC(=O)N[C@@H](CCc3cc(F)c(C(F)(F)F)c(F)c3)C(=O)N2C1 [PP1574] | – | 6.5 nM | – | – | – | A (a compound having 10 or more and less than 20 is denoted as A) | A (a compound having 10 or more and less than 20 is denoted as A) |
| CCO[C@@H]1C[C@H]2C(=O)NC3(CCC3)C(=O)N(C)[C@@H](C3CCCC3)C(=O)N(C)[C@H](C(C)C)CC(=O)N(C)[C@@H](CC)C(=O)N[C@@H]([C@@H](C)CC)C(=O)N(C)CC(=O)N(C)[C@H]3C/C=C\CCN(C3=O)[C@@H](CC3CCCCC3)C(=O)N(C)CC(=O)N[C@@H](CCc3cc(F)c(C(F)(F)F)c(F)c3)C(=O)N2C1 [PP1601] | – | 78.6 nM | – | – | – | B (a compound having 3 or more and less than 10 is denoted as B) | A (a compound having 10 or more and less than 20 is denoted as A) |
| CCC[C@H]1C(=O)N[C@@H]([C@@H](C)CC)C(=O)N(C2CC2)CC(=O)N(C)[C@H]2C/C=C\CCN(C2=O)[C@@H](Cc2ccc(C)cc2)C(=O)N(C)CC(=O)N[C@@H](CCc2cc(F)c(C(F)(F)F)c(F)c2)C(=O)N2C[C@H](OCC)C[C@H]2C(=O)N(C)C2(CCC2)C(=O)N(C)[C@@H](C2CCCC2)C(=O)N(C)[C@H](C(=O)N2CCCCC2)CC(=O)N1C [PP3111] | – | 17.8 nM | – | A (a compound having 10 or more and less than 20 is denoted as A) | A (a compound having 10 or more and less than 20 is denoted as A) | – | – |
| C#CC[C@H]1C(=O)N[C@@H]([C@@H](C)CC)C(=O)N(C)CC(=O)N(C)[C@H]2CCCCN(C2=O)[C@@H](Cc2ccc(C(F)(F)F)cc2)C(=O)N(C)CC(=O)N[C@@H](CCc2cc(F)c(C(F)(F)F)c(F)c2)C(=O)N2C[C@H](OCC)C[C@H]2C(=O)NC2(CCC2)C(=O)N(C)[C@@H](C2CCCC2)C(=O)N(C)[C@H](C(=O)N2CCOCC2)CC(=O)N1C [PP0711] | C (A compound having a KD ratio of 0.1 or more and less than 3 is denoted as C) | 6.5 nM | B (a compound having 3 or more and less than 10 is denoted as B) | – | – | – | – |
| CCCN1C(=O)CN(C)C(=O)CNC(=O)[C@H]([C@@H](C)CC)NC(=O)[C@H](CC(C)C)N(C)C(=O)C[C@@H](C(=O)N2CCOCC2)N(C)C(=O)[C@H](C2CCCC2)N(C)C(=O)C2(CCCC2)NC(=O)[C@@H]2CC(C)(C)CN2C(=O)[C@H](CCc2ccc(C(F)(F)F)c(Cl)c2)NC(=O)CN(C)C(=O)[C@@H]1Cc1ccc(C(F)(F)F)cc1 [PP0448] ([NMeL]IG[Sar][NPrPhe(4-CF3)][Sar][hPhe(3-Cl-4-CF3)][Pro(4,4-Me2)][Ac5c][NMeGly(cPent)][NMeD]-Morpholide; lactam N-11) | B (a compound having 3 or more and less than 10 is denoted as B) | 2 nM | C (A compound having a KD ratio of 0.1 or more and less than 3 is denoted as C) | – | – | – | – |
| CC[C@H](C)[C@@H]1NC(=O)[C@H](CC2CCC2)N(C)C(=O)C[C@@H](C(=O)N(C)C)N(C)C(=O)[C@H](C2CCCC2)N(C)C(=O)C2(CC(C)(C)C2)NC(=O)[C@@H]2C[C@H](C)CN2C(=O)[C@H](CCc2cc(F)c(C(F)(F)F)c(F)c2)NC(=O)CN(C)C(=O)[C@H](Cc2ccc(C(F)(F)F)cc2)N2CC/C=C\C[C@@H](C2=O)N(C)C(=O)CN(C)C1=O [PP1684] | – | 7.7 nM | – | – | – | A (a compound having 10 or more and less than 20 is denoted as A) | A (a compound having 10 or more and less than 20 is denoted as A) |
| CCCN1C(=O)[C@@H]2CCN2C(=O)[C@H](C)N(C)C(=O)[C@H]([C@@H](C)CC)NC(=O)[C@H](CC(C)C)N(C)C(=O)C[C@@H](C(=O)N2CCOCC2)N(C)C(=O)[C@H](C2CCCC2)N(C)C(=O)C2(CCCC2)NC(=O)CN(C)C(=O)[C@H](CCc2ccc(C(F)(F)F)c(Cl)c2)NC(=O)CN(C)C(=O)[C@@H]1Cc1ccc(C(F)(F)F)cc1 [PP0287] ([NMeL]I[NMeA][Aze][NPrPhe(4-CF3)][Sar][hPhe(3-Cl-4-CF3)][Sar][Ac5c][NMeGly(cPent)][NMeD]-Morpholide; lactam N-11) | – | 14.5 nM | – | C (A compound having a KD ratio of 0.1 or more and less than 3 is denoted as C) | C (A compound having a KD ratio of 0.1 or more and less than 3 is denoted as C) | – | – |
| CC[C@H](C)[C@@H]1NC(=O)[C@H](CC(C)C)N(C)C(=O)C[C@@H](C(=O)N2CCOCC2)N(C)C(=O)[C@H](C2CCCC2)N(C)C(=O)C2(CCCC2)NC(=O)[C@@H]2CCCN2C(=O)[C@H](CCc2ccc(C(F)(F)F)c(Cl)c2)NC(=O)CN(C)C(=O)[C@H](Cc2ccc(C(F)(F)F)cc2)N(CC2CCC2)C(=O)CN(C)C(=O)CN(C)C1=O [PP0123] ([NMeL]I[Sar][Sar][X39][Sar][hPhe(3-Cl-4-CF3)]P[Ac5c][NMeGly(cPent)][NMeD]-Morpholide; lactam N-11) | – | 12.5 nM | – | B (a compound having 3 or more and less than 10 is denoted as B) | C (A compound having a KD ratio of 0.1 or more and less than 3 is denoted as C) | – | – |
| CCCN(C)C(=O)[C@@H]1CC(=O)N(C)[C@@H](CC)C(=O)N[C@@H]([C@@H](C)CC)C(=O)N(C)CC(=O)N(C)[C@H]2C/C=C\CCN(C2=O)[C@@H](Cc2ccc(C(F)(F)F)cc2)C(=O)N(C)CC(=O)N[C@@H](CCc2cc(F)c(C(F)(F)F)c(F)c2)C(=O)N2CC[C@H]2C(=O)NC2(CCC2)C(=O)N(C)[C@@H](C2CCCC2)C(=O)N1C [PP2915] | – | 129 nM | – | A (a compound having 10 or more and less than 20 is denoted as A) | A (a compound having 10 or more and less than 20 is denoted as A) | – | – |
| CCO[C@@H]1C[C@H]2C(=O)N[C@]3(C)CCCCCC[C@@H](C(=O)N[C@@H]([C@@H](C)CC)C(=O)N(C)CC(=O)N(C)[C@H]4CCCCN(C4=O)[C@@H](Cc4ccc(C(F)(F)F)cc4)C(=O)N(C)CC(=O)N[C@@H](CCc4cc(F)c(C(F)(F)F)c(F)c4)C(=O)N2C1)N(C)C(=O)C[C@@H](C(=O)N1CCOCC1)N(C)C(=O)[C@H](C1CCCC1)N(C)C3=O [PP0992] | – | 790 nM | – | B (a compound having 3 or more and less than 10 is denoted as B) | B (a compound having 3 or more and less than 10 is denoted as B) | – | – |
